Literature values as cited in patent US7183293B2, “Ether derivatives useful as inhibitors of PDE4 isozymes” (Pfizer Inc., priority 2001, dated 2007).
Each block holds one molecule with its values, some of them ahead of it.

What was measured:
[1] = target: human PDE4B2B (Homo sapiens, UniProt Q07343)
[2] = system: 5-lipoxygenase; conditions: in vivo
[3] = in vivo
[4] = system: rhinorrhea
[5] = system: LPS-stimulated ex vivo TNF release and PHA induced lymphocyte proliferation; conditions: oral dose of 300 mg
[6] = system: canine tracheal PDE4; conditions: at 100 nM
[7] = system: tumor cells
[8] = system: dextran sulfate induced colitis; conditions: rat
[9] = system: SCW-induced arthritis; conditions: in vivo
[10] = system: rheumatoid arthritis; design: dose or concentration left out as unconfirmed; conditions: 35 patients
[11] = system: PDE4B mutant enzyme; conditions: alanine for aspartate in the catalytic region
[12] = system: antigen-induced bronchospasm; conditions: rat
[13] = target: PDE4D (Homo sapiens, UniProt Q08499)
Chain of PDE4D (Q08499 whole entry, species assumed): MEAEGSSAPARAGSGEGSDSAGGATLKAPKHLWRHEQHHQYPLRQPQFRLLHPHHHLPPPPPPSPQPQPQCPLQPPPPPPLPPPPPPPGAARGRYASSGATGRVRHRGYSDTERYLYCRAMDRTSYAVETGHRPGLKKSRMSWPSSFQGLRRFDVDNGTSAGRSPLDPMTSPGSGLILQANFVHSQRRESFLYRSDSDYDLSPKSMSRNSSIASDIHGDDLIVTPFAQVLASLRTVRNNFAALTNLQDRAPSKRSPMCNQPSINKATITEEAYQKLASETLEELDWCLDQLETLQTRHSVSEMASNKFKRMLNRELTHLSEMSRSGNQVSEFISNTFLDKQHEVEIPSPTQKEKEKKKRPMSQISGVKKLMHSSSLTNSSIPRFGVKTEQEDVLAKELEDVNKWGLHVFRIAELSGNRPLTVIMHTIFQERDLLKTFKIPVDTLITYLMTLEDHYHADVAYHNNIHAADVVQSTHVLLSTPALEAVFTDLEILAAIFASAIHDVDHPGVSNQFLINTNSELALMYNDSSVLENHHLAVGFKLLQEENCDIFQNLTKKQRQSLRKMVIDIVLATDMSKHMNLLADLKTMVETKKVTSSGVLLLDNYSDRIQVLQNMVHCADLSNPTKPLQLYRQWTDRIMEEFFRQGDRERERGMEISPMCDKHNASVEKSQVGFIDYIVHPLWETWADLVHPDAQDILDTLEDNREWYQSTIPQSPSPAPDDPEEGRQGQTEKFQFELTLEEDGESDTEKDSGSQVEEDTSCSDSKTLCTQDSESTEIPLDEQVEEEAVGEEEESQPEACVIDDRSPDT

[14] = system: psoriatic lesions; conditions: in vivo
[15] = system: FEV1 and forced vital capacity
[16] = system: 5-lipoxygenase; conditions: a number of species
[17] = system: bronchodilation; conditions: in vivo
[18] = system: lipopolysaccharide-induced bowel erythrocyte extravasation; conditions: rats; for lipopolysaccharide-induced bowel erythrocyte extravasation: pretreatment i.p. 3×
[19] = system: mineralized nodule formation and osteoclast-like cell formation
[20] = system: bone loss; conditions: serial oral administrations
[21] = system: lipopolysaccharide-induced mesenteric blood flow fall; conditions: dogs
[22] = system: mean pulmonary artery pressure; conditions: oral administration, clinical conditions
[23] = system: pulmonary artery rings
[24] = system: collagen induced arthritis
[25] = system: T-cell mediated hepatic failure
[26] = system: gastric parietal cells
[27] = system: experimental allergic encephalomyelitis; conditions: marmoset

Chain of human PDE4B2B (Q07343 1-564 isoform Q07343-2): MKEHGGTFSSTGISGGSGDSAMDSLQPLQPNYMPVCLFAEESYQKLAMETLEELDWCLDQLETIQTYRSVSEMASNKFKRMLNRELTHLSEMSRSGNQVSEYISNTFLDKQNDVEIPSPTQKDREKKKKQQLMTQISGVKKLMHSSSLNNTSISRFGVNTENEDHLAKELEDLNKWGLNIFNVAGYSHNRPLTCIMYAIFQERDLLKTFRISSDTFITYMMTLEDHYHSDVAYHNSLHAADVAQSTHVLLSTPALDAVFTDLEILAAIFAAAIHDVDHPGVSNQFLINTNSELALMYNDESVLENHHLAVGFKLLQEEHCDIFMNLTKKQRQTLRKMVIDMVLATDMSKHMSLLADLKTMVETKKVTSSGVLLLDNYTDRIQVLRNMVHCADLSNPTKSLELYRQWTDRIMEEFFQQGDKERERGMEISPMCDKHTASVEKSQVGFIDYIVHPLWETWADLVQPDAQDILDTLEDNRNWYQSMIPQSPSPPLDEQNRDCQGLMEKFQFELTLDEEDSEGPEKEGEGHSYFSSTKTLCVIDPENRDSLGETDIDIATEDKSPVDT

affinity to the catalytic and the HARB sites [1]: equal affinity
Compound: COC(=O)N1C[C@H](c2ccc(OC)c(OC3CCCC3)c2)[C@@](C)(C(C)=O)C1 (racemic) [Formula (0.0.61), (R,R)-(+/−)-methyl-3-acetyl-4-[3-(cyclopentyloxy)-4-methoxyphenyl]-3-methyl-1-pyrrolidine carboxylate]

duration of action [2]: longer duration of action than zileuton
Compound: C[C@H](C#Cc1ccc(Oc2ccc(F)cc2)o1)N(O)C(N)=O [Abbott-79175]

Compound: Nc1nc2c([nH]1)c(=O)n(CC1CC1)c(=O)n2CC1CC1 [BRL-61,063]
emesis / nausea and vomiting [3]: nausea and vomiting

Compound: COc1ccc(C2CNC(=O)NC2)cc1O[C@H]1C[C@@H]2CC[C@H]1C2 [CP-80,633]
emesis / nausea and vomiting [3]: elicit emesis

Compound: CCCn1c(=O)c2c(C)nc(CC)n2c2nc(OC)ccc21 [Example D-22888]
rhinorrhea ([4]; antigen-challenged pig): inhibit rhinorrhea
anti-allergic effect ([4]; pig, in vivo): strong anti-allergic affect

Compound: CCNc1ncn(Cc2ccc(OC)c(OC3CCCC3)c2)c2nc(C(C)C)nc1-2 [Example V-11294A]
reducing TNF levels and lymphocyte proliferation [5]: effective

Compound: COc1ccc(C(=O)Cc2c(Cl)cncc2Cl)c2c1OCCCCO2 [Formula (0.0.49)]
inhibition of canine tracheal PDE4 [6]: almost complete inhibition

Compound: Clc1nc2c(N3CCCC3)nc(N3CCNCC3)nc2nc1NCc1ccccc1 [Formula (0.0.55)]
inhibition of the growth of tumor cells [7]: micromolar concentrations

Compound: CCCn1c(=O)c2[nH]cnc2n(-c2ccc(Cl)cc2)c1=O [LAS31025]
effects in dextran sulfate induced colitis (bleeding and inflammatory markers) [8]: beneficial effects comparable to prednisolone

Compound: COc1ccc(C(=O)Nc2c(Cl)cncc2Cl)cc1OC1CCCC1 [RP73401]
amelioration of disease (joint destruction, synovitis, fibrosis) [9]: significant amelioration of disease
clinical improvement, C-reactive protein and IL-6 serum levels [10]: positive trend towards clinical improvement

inhibition of mutant PDE4B [11]: lose potency
Compound: COc1ccc(C(=O)Nc2c(Cl)cncc2Cl)cc1OC1CCCC1 [RP-73,401]
emesis / nausea and vomiting [3]: elicit emesis

Compound: COc1ccc(C(=O)Nc2c(C)noc2C)cc1OC1CCCC1 [RPR-132294]
inhibition of antigen-induced bronchospasm [12]: activity

Compound: O=c1c2cccnc2n(-c2cccc([N+](=O)[O-])c2)c(=O)n1Cc1ccncc1 [RS-23,544]
emesis / nausea and vomiting [3]: elicit emesis

potency against PDE4 subtypes [13]: more potent against PDE4D
Compound: O=c1c2cccnc2n(-c2cccc([N+](=O)[O-])c2)c(=O)n1Cc1ccncc1 [RS-25,344]

Compound: CCCCOc1cc(CC2CNC(=O)N2)ccc1OC (centres unmarked) [Ro 20-1724]
adverse systemic or cutaneous effects [14]: without adverse systemic or cutaneous effects

inhibition of mutant PDE4B [11]: lose potency
Compound: COc1ccc(CC2CNC(=O)N2)cc1OC1CCCC1 (centres unmarked) [Ro-20-1724]

Compound: COc1ccc([C@]2(C#N)CC[C@@H](C(=O)O)CC2)cc1OC1CCCC1 [SB-207,499]
FEV and forced vital capacity (FVC) ([15]; 15 mg twice a day for six weeks): increrases
FEV1 ([15]; four week trial, six week study, 15 mg twice a day): improved FEV1

Compound: COC1(c2cc(F)cc(OCc3ccc4c(ccc(=O)n4C)c3)c2)CCOCC1 [ZD-2138]
oral activity [16]: highly active orally

Compound: COc1cc2c(cc1OC)[C@@H]1CN(C)CC[C@@H]1N=C2c1ccc(NC(C)=O)cc1 [benafentrine]
bronchodilation [17]: bronchodilation only when administered by inhalation

Compound: CCCCn1c(=O)c2c(ncn2CC(C)=O)n(CCCC)c1=O [debufylline]
lipopolysaccharide-induced bowel erythrocyte extravasation [18]: reduces

Compound: CCCCn1c(=O)c2c(ncn2CC(C)=O)n(CCCC)c1=O [denbufylline]
number of mineralized nodules [19]: increase in the number of mineralized nodules
bone mineral density of femurs [20]: inhibit the decrease in the bone mineral density
lipopolysaccharide induced intestinal hypoperfusion [21]: attenuated
lipopolysaccharide induced erythrocyte extravasation [18]: attenuated

Compound: CSc1ccc(C(=O)c2[nH]c(=O)[nH]c2C)cc1 [enoximone]
mean pulmonary artery pressure [22]: decreases

Compound: Cc1[nH]c(=O)c(C#N)cc1-c1ccncc1 [milrinone]
adverse events [17]: tachycardia and hypotension
bronchodilation [17]: short-lived bronchodilation
protection against induced bronchoconstriction [17]: slight degree of protection
mean pulmonary artery pressure [22]: decreases
relaxant activities of isoproterenol and forskolin [23]: same effect

Compound: CC(=O)CCCCn1c(=O)c2c(ncn2C)n(C)c1=O [pentoxifylline]
lipopolysaccharide-induced bowel erythrocyte extravasation [18]: reduces

inhibition of mutant PDE4B [11]: critical for inhibition
stimulation of acid secretion [26]: very potent stimulator
Compound: COc1ccc(C2CNC(=O)C2)cc1OC1CCCC1 (centres unmarked) [rolipram]
development of the disease ([24]; 3 mg/kg twice daily when arthritis was apparent): progression of severity was halted
TNF-α and IFN-γ mRNA expression in regional lymph nodes ([24]; rat, in vivo): strong down-regulation
plasma activities of ALT, AST and SDH ([25]; 0.1 to 10 mg/kg i.p., mice): dose-dependently inhibited
concanavalin A-induced IL-4 release ([25]; mouse, in vivo): suppress
lipopolysaccharide induced intestinal hypoperfusion [21]: attenuated
lipopolysaccharide induced erythrocyte extravasation [18]: attenuated
lipopolysaccharide-induced bowel erythrocyte extravasation [18]: reduces
relaxant activities of isoproterenol and forskolin [23]: potentiates
effects in dextran sulfate induced colitis (bleeding and inflammatory markers) [8]: beneficial effects comparable to prednisolone
clinical signs and MRI abnormalities [27]: suppress the appearance of clinical signs
